The record followed here is PubChem BioAssay (NCI).

Several values for one entry are separate records, joined by “and”; a condition that tells them apart may be missing. Equal values may be shown once.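 Method: 48-hour compound exposure of cells in 96-well plates, five concentrations, linear interpolation of endpoints. TGI: concentration producing complete growth inhibition.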 Where only a bound is given, the exact number is not on record here.

Among the test systems are KM12 colon; HS 578T breast; NCI-H226 lung; 786-0 renal; EKVX NSCLC; IGROV1 ovarian; COLO 205 colon; HCT-116 colon; MALME-3M melanoma; SNB-75 CNS; SF-295 CNS; OVCAR-5 ovarian; MDA-N; SF-268 CNS; HOP-62 NSCLC; HT29 colon; SNB-19 CNS; RXF 393 renal; HCC-2998 colon.
What all share (assay): NCI-60 cell line screen, 48 h

Regarding `O=C(NC(Cc1ccccc1)P(=O)(O)c1ccccc1)OCc1ccccc1` (stereo not given), the TGI in the assay with KM12 colon, in the assay with HS 578T breast, in the assay with NCI-H226 lung, in the assay with 786-0 renal, in the assay on EKVX NSCLC and with IGROV1 ovarian was greater than 100 µM throughout. For the same compound, the TGI with COLO 205 colon, in the assay on HCT-116 colon, in the assay with MALME-3M melanoma, with SNB-75 CNS, in the assay with SF-295 CNS and with OVCAR-5 ovarian was greater than 100 µM in each case. Moreover, the TGI in the assay with MDA-N, with SF-268 CNS, with HOP-62 NSCLC, in the assay on HT29 colon and in the assay on SNB-19 CNS was greater than 100 µM each time.
Take `O=C1Cc2c([nH]c3cc(Br)ccc23)-c2ccccc2N1`: the TGI in the assay on KM12 colon was greater than 100 µM; in the assay on HS 578T breast, 69.9 µM; in the assay with NCI-H226 lung, 34.7 µM; in the assay with 786-0 renal it was greater than 100 µM; in the assay on IGROV1 ovarian, 99.7 µM; in the assay with COLO 205 colon it was 93.8 µM. Further, the TGI with HCT-116 colon was 15.9 µM; in the assay with MALME-3M melanoma, 48.1 µM; with SNB-75 CNS it was 44.9 µM; with SF-295 CNS, 61.3 µM; with OVCAR-5 ovarian it was 52.7 µM; with MDA-N, greater than 100 µM. For the same compound, the TGI in the assay on SF-268 CNS came out at 89.9 µM; in the assay with RXF 393 renal it was 12.2 µM; in the assay on HOP-62 NSCLC, 26 µM; in the assay with HT29 colon it was 37.2 µM; in the assay with SNB-19 CNS it was 58 µM.
With `N=c1oc2ccc(Cl)cc2cc1C(=O)NC1CCCCC1`, the TGI in the assay with KM12 colon is greater than 100 µM; in the assay with HS 578T breast, greater than 100 µM; in the assay with HCC-2998 colon it was 89.1 µM; in the assay on NCI-H226 lung, greater than 100 µM; with 786-0 renal, greater than 100 µM; in the assay with IGROV1 ovarian it was greater than 100 µM. Also, the TGI with COLO 205 colon, in the assay with HCT-116 colon, with SNB-75 CNS, in the assay with OVCAR-5 ovarian, in the assay on MDA-N and in the assay with SF-268 CNS was greater than 100 µM in each case. For the same compound, the TGI in the assay on RXF 393 renal, in the assay on HOP-62 NSCLC, in the assay with HT29 colon and in the assay with SNB-19 CNS was greater than 100 µM throughout.
Turning to `Cc1c(C=C(C#N)C#N)c(=O)n(C)c(=O)n1C`, the TGI with KM12 colon, in the assay on HS 578T breast, in the assay on NCI-H226 lung, with 786-0 renal, with EKVX NSCLC and in the assay on IGROV1 ovarian was greater than 100 µM each time. The TGI in the assay on COLO 205 colon, in the assay on HCT-116 colon, in the assay with MALME-3M melanoma, in the assay with SNB-75 CNS, in the assay on SF-295 CNS and with OVCAR-5 ovarian was greater than 100 µM throughout. Moreover, the TGI with MDA-N, in the assay with SF-268 CNS, in the assay on RXF 393 renal, in the assay with HOP-62 NSCLC, with HT29 colon and with SNB-19 CNS was greater than 100 µM each time.
As for `C1COCCOP2(N3CC3)=NP(N3CC3)(=NP(N3CC3)(N3CC3)=N2)OCCOCCO1` (stereo not given), the TGI with KM12 colon, in the assay with HS 578T breast, with NCI-H226 lung, in the assay on 786-0 renal, in the assay with EKVX NSCLC and in the assay on IGROV1 ovarian was greater than 100 µM throughout. Besides, the TGI in the assay with COLO 205 colon, in the assay on HCT-116 colon, in the assay with MALME-3M melanoma, with SNB-75 CNS, in the assay with SF-295 CNS and in the assay with OVCAR-5 ovarian was greater than 100 µM each time. The TGI with MDA-N, in the assay on SF-268 CNS, in the assay with RXF 393 renal, with HOP-62 NSCLC, with HT29 colon and in the assay on SNB-19 CNS was greater than 100 µM each time.
`CCCC(=O)Oc1cc(OC(=O)CCC)c2c(C)cc(=O)oc2c1`: the TGI with KM12 colon, in the assay with HS 578T breast, with NCI-H226 lung, in the assay on 786-0 renal, in the assay with EKVX NSCLC and with IGROV1 ovarian was greater than 100 µM each time. The TGI with COLO 205 colon, in the assay with HCT-116 colon, in the assay on MALME-3M melanoma, with SNB-75 CNS, with SF-295 CNS and in the assay on OVCAR-5 ovarian was greater than 100 µM throughout. Further, the TGI in the assay with MDA-N, with SF-268 CNS, in the assay on HOP-62 NSCLC, in the assay on HT29 colon and in the assay with SNB-19 CNS was greater than 100 µM throughout.
Consider `OCC1(CNc2cc(Cl)ncn2)CCC1`, for which the TGI in the assay on KM12 colon, with HS 578T breast, with NCI-H226 lung, with 786-0 renal, in the assay on EKVX NSCLC and in the assay with IGROV1 ovarian was greater than 100 µM throughout. Moreover, the TGI in the assay with COLO 205 colon, in the assay on HCT-116 colon, with MALME-3M melanoma, in the assay on SNB-75 CNS, in the assay with SF-295 CNS and with OVCAR-5 ovarian was greater than 100 µM in each case. In addition, the TGI in the assay on MDA-N, in the assay with SF-268 CNS, with HOP-62 NSCLC and in the assay on HT29 colon was greater than 100 µM throughout.
As to `OCC(O)C(O)C(C=NNc1ncnc2ccc(Br)cc12)=NNc1ncnc2ccc(Br)cc12` (stereo not given), the TGI in the assay on KM12 colon was 69 µM and > 100 µM; with HS 578T breast it was greater than 100 µM; in the assay on 786-0 renal it was greater than 100 µM; with EKVX NSCLC, 20.9 µM and > 100 µM; in the assay on IGROV1 ovarian, 12.2 µM and > 100 µM; with COLO 205 colon it was greater than 100 µM. The TGI is greater than 100 µM with HCT-116 colon; 17.6 µM and > 100 µM in the assay with SNB-75 CNS; greater than 100 µM in the assay on SF-295 CNS; 88 µM and > 100 µM in the assay on OVCAR-5 ovarian; greater than 100 µM with MDA-N; 25 µM and > 100 µM in the assay with SF-268 CNS. Further, the TGI is 72.4 µM in the assay on RXF 393 renal; 25 µM and > 100 µM with HOP-62 NSCLC; greater than 100 µM in the assay on HT29 colon; greater than 100 µM with SNB-19 CNS.
